Measured values taken from PubChem BioAssay AID1963962 (Molecular Pharmacology Branch, DTP, NCI, 2024).

Test system: 967376-340-R-J2-PDC multicell spheroid viability
Assay: Anticancer human tumor 967376-340-R-J2-PDC patient-derived colon adenocarcinoma cell line growth inhibition [PI3K]
Conditions: for IC50: curve of first compound; for viability, T/C: stronger effect = lower value
From the text: Combinatorial screen of targeted agents with the PI3K inhibitors inavolisib, alpelisib, duvelisib, and copanlisib in multi-cell type tumor spheroids
A high-throughput screen of multi-cell type tumor spheroids was designed to identify active combinations of targeted small molecules and PI3K pathway inhibitors. Complex spheroids include a stromal component modeled by human endothelial cells (HUVEC) and fibroblasts modeled by human mesenchymal stem cells (MSCs). The concentration ranges selected for each drug and investigational agent were based upon clinically achievable concentrations if the clinical Cmax of the agent was known.
Compounds. The drugs and investigational agents: inavolisib (NSC800729), alpelisib (NSC765974), duvelisib (NSC772469), copanlisib (NSC816437), ipatasertib (NSC767898), afuresertib (NSC778305), talazoparib (NSC767125), sapanisertib (NSC764658), selumetinib (NSC741078), tovorafenib (DAY101, NSC766906), vemurafenib (NSC761431), ravoxertinib (NSC781343), sotorasib (NSC818433), MRTX1133 (NSC 836407), abemaciclib (NSC 768073), palbociclib (NSC758247), venetoclax (NSC 766270), SY5609 (NSC837396), enzalutamide (NSC755605), and darolutamide (NSC825331), were obtained from the National Cancer Institute (NCI) Developmental Therapeutics Program Chemical Repository. The FDA-approved anticancer drug set is available from the NCI Developmental Therapeutics Program. […] The stock solutions were prepared in dimethyl sulfoxide (DMSO, Sigma-Aldrich, St. Louis, MO, cat. D2650) at 800-fold the tested concentration and stored at -70 degrees C prior to their use. All drugs and investigational agents were tested over a range starting from a high concentration at or near the clinical Cmax and decreasing in half-log increments. If the clinical Cmax for an agent had not been determined, the highest concentration tested was 10 microM.
Cell Culture. All cells were maintained in an incubator at 37 degrees C and 5% CO2 with 95% humidity. The PDC lines were cultured according to standard operating procedures established by the NCI PDMR (https://pdmr.cancer.gov/sops/default.htm). All PDCs were thawed and cultured in Matrigel-coated flasks prepared with a working solution of 1X Ham's F-12 nutrient mix, without supplementation (Invitrogen, Waltham, MA, cat. 11765054), 100 U/mL penicillin-streptomycin (Invitrogen, cat. 15140122), and 2.5% Matrigel (Corning Inc., Corning, NY, cat. 354248) for the first three passages. The 354836-022-R-J1-PDC, 475296-252-R-J1-PDC, and 997726-040-R-J2-PDC lines were cultured in 6A media, which includes advanced DMEM/F-12 (Thermo Fisher Scientific, cat. 12634028), 10 mM HEPES (Thermo Fisher Scientific, cat. 15630080), 1X GlutaMAX supplement (Thermo Fisher Scientific, cat. 35050061), 0.1 mg/mL primocin (InvivoGen, San Diego, CA, cat. ant-pm-2), 10% defined fetal bovine serum, heat inactivated (HyClone Laboratories Inc., Logan, UT, cat. SH30070.03HI), 50% L-WRN conditioned media (ATCC, cat. CRL-3276), 1.25 mM N-Acetyl-L-cysteine (Sigma-Aldrich, cat. A9165), 10 mM nicotinamide (Sigma-Aldrich, cat. N0636), 1X B-27 supplement (Thermo Fisher Scientific, cat. 17504044), 1X N-2 supplement (Thermo Fisher Scientific, cat. 17502048), and 10 microM Y-27632 dihydrochloride (Tocris Bioscience, Bristol, United Kingdom, cat. 1254). The 624824-186-R-J2-PDC line was cultured in 6C/Colon 1B media, which includes all 6A media components plus 50 ng/mL human EGF recombinant protein (Thermo Fisher Scientific, cat. PHG0311). […]
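Note: spheroids exposed to agents for 7 days before read-out.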
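Throughout, for viability, T/C: luminescence used as surrogate of cell viability.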

IC50 (second compound 0.0316 µM): > 100 nM
IC50 (second compound 0.1 µM): > 100 nM
IC50 (second compound 0.316 µM): > 100 nM
IC50 (second compound 1 µM): > 100 nM
IC50 (second compound 3.16 µM): > 100 nM
IC50 (second compound 10 µM): 21.8 nM
SMILES: Cn1ncnc1[C@H]1c2n[nH]c(=O)c3cc(F)cc(c23)N[C@@H]1c1ccc(F)cc1 + Cc1nc(NC(=O)N2CCCC2C(N)=O)sc1-c1ccnc(C(C)(C)C(F)(F)F)c1
viability, T/C (second compound 0.0316 µM, first compound 0.000316 µM): 85.9%
viability, T/C (second compound 0.0316 µM, first compound 0.001 µM): 84.8%
viability, T/C (second compound 0.0316 µM, first compound 0.00316 µM): 83%
viability, T/C (second compound 0.0316 µM, first compound 0.01 µM): 79.5%
viability, T/C (second compound 0.0316 µM, first compound 0.0316 µM): 109%
viability, T/C (second compound 0.0316 µM, first compound 0.1 µM): 86.2%
viability, T/C (second compound 0.1 µM, first compound 0.000316 µM): 104%
viability, T/C (second compound 0.1 µM, first compound 0.001 µM): 69.8%
viability, T/C (second compound 0.1 µM, first compound 0.00316 µM): 77.9%
viability, T/C (second compound 0.1 µM, first compound 0.01 µM): 92.8%
viability, T/C (second compound 0.1 µM, first compound 0.0316 µM): 82.6%
viability, T/C (second compound 0.1 µM, first compound 0.1 µM): 82.1%
viability, T/C (second compound 0.316 µM, first compound 0.000316 µM): 70.7%
viability, T/C (second compound 0.316 µM, first compound 0.001 µM): 69%
viability, T/C (second compound 0.316 µM, first compound 0.00316 µM): 50.6%
viability, T/C (second compound 0.316 µM, first compound 0.01 µM): 76.6%
viability, T/C (second compound 0.316 µM, first compound 0.0316 µM): 71.3%
viability, T/C (second compound 0.316 µM, first compound 0.1 µM): 67.8%
viability, T/C (second compound 1 µM, first compound 0.000316 µM): 58.9%
viability, T/C (second compound 1 µM, first compound 0.001 µM): 71.8%
viability, T/C (second compound 1 µM, first compound 0.00316 µM): 71.8%
viability, T/C (second compound 1 µM, first compound 0.01 µM): 67%
viability, T/C (second compound 1 µM, first compound 0.0316 µM): 55.1%
viability, T/C (second compound 1 µM, first compound 0.1 µM): 60.3%
viability, T/C (second compound 3.16 µM, first compound 0.000316 µM): 51%
viability, T/C (second compound 3.16 µM, first compound 0.001 µM): 65.9%
viability, T/C (second compound 3.16 µM, first compound 0.00316 µM): 65.5%
viability, T/C (second compound 3.16 µM, first compound 0.01 µM): 68.9%
viability, T/C (second compound 3.16 µM, first compound 0.0316 µM): 62.4%
viability, T/C (second compound 3.16 µM, first compound 0.1 µM): 56%
viability, T/C (second compound 10 µM, first compound 0.000316 µM): 48.2%
viability, T/C (second compound 10 µM, first compound 0.001 µM): 71.1%
viability, T/C (second compound 10 µM, first compound 0.00316 µM): 51.5%
viability, T/C (second compound 10 µM, first compound 0.01 µM): 38.8%
viability, T/C (second compound 10 µM, first compound 0.0316 µM): 50.8%
viability, T/C (second compound 10 µM, first compound 0.1 µM): 51.7%
